Experiments:
Assay in all cases: kinome screen (33PanQinase)
Assay type in all cases: biochemical
CDC42BPA = molecular target: T1, CDC42BPA (Homo sapiens, UniProt Q5VT25)
T1 construct: purchased Reaction Biology Europe GmbH (formerly ProQinase)
Description: (§1) The Kinome Screening was performed by Reaction Biology Europe GmbH (http://reactionbiology.com; Freiburg i. Br., Germany).

PKA = molecular target: T2, PKA (Homo sapiens, UniProt P17612)
T2 construct: purchased Reaction Biology Europe GmbH (formerly ProQinase)
Description: as §1

SIK3 = molecular target: T3, SIK3 (Homo sapiens, UniProt Q9Y2K2)
T3 construct: purchased Reaction Biology Europe GmbH (formerly ProQinase)
Description: as §1

TGFBR1 = molecular target: T4, TGFBR1 (Homo sapiens, UniProt P36897)
T4 construct: purchased Reaction Biology Europe GmbH (formerly ProQinase)
T4 sequence (P36897 34-503): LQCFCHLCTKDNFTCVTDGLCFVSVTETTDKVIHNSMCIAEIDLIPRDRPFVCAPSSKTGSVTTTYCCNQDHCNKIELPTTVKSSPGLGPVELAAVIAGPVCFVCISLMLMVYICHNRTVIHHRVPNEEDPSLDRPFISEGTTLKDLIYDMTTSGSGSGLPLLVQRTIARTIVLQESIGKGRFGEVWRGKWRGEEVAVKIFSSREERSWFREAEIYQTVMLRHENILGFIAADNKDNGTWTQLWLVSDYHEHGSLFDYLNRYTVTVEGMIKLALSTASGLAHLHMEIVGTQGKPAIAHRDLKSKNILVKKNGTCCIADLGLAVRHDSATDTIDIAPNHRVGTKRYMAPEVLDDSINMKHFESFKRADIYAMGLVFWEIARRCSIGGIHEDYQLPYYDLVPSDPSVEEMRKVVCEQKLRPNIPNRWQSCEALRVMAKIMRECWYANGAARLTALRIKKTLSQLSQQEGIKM
Description: as §1

MELK = molecular target: T5, MELK (Homo sapiens, UniProt Q14680)
T5 construct: purchased Reaction Biology Europe GmbH (formerly ProQinase)
Description: as §1

MARK2 = molecular target: T6, MARK2 (Homo sapiens, UniProt Q7KZI7)
T6 construct: purchased Reaction Biology Europe GmbH (formerly ProQinase)
Description: as §1

CDK18/CycY = molecular target: T7, CDK18/CycY (Homo sapiens, UniProt Q07002)
T7 construct: purchased Reaction Biology Europe GmbH (formerly ProQinase)
Description: as §1

BMPR1A = molecular target: T8, BMPR1A (Homo sapiens, UniProt P36894)
T8 construct: purchased Reaction Biology Europe GmbH (formerly ProQinase)
Description: as §1

SGK1 = molecular target: T9, SGK1 (Homo sapiens, UniProt O00141)
T9 construct: purchased Reaction Biology Europe GmbH (formerly ProQinase)
T9 sequence (O00141 1-431): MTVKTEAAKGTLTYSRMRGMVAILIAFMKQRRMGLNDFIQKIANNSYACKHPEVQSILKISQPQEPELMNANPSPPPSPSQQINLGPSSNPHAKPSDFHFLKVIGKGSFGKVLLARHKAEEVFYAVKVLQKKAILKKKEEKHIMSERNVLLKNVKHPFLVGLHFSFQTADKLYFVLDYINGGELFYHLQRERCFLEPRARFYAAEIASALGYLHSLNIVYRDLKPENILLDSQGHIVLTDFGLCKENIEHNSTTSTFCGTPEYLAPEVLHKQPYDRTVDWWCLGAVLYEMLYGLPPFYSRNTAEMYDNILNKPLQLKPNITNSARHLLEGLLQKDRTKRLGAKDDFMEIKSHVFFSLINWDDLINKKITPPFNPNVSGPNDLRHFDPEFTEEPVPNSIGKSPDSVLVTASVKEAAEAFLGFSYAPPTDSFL
Description: as §1

CDK9/CycK = molecular target: T10, CDK9/CycK (Homo sapiens, UniProt P50750)
T10 construct: purchased Reaction Biology Europe GmbH (formerly ProQinase)
Description: as §1

PHKG1 = molecular target: T11, PHKG1 (Homo sapiens, UniProt Q16816)
T11 construct: purchased Reaction Biology Europe GmbH (formerly ProQinase)
Description: as §1

ITK = molecular target: T12, ITK (Homo sapiens, UniProt Q08881)
T12 construct: purchased Reaction Biology Europe GmbH (formerly ProQinase)
T12 sequence (Q08881 1-620): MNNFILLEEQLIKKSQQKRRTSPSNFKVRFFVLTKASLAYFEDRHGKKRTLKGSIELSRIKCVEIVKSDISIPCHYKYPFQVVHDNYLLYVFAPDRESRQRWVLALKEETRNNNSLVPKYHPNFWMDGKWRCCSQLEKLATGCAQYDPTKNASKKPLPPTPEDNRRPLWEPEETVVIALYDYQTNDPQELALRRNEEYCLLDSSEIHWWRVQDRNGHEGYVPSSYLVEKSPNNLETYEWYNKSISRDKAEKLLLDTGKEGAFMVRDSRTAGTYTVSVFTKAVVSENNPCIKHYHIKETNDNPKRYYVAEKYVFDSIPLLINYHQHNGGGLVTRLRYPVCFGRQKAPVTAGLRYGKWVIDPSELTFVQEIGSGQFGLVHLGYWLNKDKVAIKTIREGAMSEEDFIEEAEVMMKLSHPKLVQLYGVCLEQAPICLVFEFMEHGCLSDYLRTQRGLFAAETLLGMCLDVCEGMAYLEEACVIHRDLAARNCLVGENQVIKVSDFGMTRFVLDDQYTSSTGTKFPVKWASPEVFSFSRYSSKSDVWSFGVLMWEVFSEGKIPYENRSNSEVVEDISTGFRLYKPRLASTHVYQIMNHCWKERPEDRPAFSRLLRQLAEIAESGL
Description: as §1

MARK3 = molecular target: T13, MARK3 (Homo sapiens, UniProt P27448)
T13 construct: purchased Reaction Biology Europe GmbH (formerly ProQinase)
Description: as §1

p38α = molecular target: T14, p38α (Homo sapiens, UniProt Q16539)
T14 construct: purchased Reaction Biology Europe GmbH (formerly ProQinase)
Description: as §1

T13 sequence (P27448 whole entry): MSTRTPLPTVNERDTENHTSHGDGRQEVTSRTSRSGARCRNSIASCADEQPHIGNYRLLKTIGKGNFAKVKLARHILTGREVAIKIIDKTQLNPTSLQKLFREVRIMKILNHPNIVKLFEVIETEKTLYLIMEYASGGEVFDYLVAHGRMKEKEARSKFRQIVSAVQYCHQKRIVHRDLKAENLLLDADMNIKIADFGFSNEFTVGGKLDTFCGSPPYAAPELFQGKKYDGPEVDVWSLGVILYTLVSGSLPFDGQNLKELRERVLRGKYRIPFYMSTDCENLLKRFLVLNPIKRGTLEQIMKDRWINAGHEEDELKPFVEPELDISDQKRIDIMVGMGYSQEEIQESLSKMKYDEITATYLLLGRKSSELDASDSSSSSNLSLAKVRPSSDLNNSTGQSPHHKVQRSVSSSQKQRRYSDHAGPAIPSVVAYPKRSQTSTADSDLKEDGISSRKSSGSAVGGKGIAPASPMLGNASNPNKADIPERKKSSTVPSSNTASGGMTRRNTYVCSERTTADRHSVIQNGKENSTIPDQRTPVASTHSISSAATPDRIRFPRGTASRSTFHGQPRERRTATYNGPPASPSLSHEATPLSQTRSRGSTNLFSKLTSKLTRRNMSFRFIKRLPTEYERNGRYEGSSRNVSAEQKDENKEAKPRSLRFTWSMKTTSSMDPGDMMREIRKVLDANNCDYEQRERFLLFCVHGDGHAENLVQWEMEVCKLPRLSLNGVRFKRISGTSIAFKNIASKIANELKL
T5 sequence (Q14680 whole entry): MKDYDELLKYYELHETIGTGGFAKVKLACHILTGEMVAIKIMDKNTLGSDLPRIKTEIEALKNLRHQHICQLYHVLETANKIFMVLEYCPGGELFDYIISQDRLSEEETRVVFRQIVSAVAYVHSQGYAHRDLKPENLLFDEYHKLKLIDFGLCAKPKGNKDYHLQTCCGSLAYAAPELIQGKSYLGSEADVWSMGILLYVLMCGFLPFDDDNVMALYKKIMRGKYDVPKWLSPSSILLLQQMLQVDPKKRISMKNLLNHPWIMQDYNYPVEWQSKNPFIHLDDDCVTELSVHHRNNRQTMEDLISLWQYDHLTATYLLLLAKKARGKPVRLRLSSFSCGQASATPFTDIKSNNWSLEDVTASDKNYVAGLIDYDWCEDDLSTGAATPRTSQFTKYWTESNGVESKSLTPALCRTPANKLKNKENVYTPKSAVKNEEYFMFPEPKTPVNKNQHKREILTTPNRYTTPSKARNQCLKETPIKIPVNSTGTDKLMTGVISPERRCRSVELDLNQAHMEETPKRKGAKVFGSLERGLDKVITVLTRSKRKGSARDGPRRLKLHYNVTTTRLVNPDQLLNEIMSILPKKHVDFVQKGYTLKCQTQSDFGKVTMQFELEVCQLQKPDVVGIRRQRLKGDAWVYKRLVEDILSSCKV
T11 sequence (Q16816 whole entry): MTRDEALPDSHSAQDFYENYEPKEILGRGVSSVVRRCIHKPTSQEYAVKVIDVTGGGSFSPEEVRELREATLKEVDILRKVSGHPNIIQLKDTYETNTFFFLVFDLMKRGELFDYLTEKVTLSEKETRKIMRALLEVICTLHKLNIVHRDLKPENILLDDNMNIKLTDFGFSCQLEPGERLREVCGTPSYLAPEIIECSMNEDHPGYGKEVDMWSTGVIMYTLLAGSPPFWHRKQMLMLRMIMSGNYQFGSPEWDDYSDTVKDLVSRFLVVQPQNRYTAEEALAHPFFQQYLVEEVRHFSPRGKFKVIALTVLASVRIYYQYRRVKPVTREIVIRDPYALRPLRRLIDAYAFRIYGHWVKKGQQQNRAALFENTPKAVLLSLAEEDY
T3 sequence (Q9Y2K2 whole entry): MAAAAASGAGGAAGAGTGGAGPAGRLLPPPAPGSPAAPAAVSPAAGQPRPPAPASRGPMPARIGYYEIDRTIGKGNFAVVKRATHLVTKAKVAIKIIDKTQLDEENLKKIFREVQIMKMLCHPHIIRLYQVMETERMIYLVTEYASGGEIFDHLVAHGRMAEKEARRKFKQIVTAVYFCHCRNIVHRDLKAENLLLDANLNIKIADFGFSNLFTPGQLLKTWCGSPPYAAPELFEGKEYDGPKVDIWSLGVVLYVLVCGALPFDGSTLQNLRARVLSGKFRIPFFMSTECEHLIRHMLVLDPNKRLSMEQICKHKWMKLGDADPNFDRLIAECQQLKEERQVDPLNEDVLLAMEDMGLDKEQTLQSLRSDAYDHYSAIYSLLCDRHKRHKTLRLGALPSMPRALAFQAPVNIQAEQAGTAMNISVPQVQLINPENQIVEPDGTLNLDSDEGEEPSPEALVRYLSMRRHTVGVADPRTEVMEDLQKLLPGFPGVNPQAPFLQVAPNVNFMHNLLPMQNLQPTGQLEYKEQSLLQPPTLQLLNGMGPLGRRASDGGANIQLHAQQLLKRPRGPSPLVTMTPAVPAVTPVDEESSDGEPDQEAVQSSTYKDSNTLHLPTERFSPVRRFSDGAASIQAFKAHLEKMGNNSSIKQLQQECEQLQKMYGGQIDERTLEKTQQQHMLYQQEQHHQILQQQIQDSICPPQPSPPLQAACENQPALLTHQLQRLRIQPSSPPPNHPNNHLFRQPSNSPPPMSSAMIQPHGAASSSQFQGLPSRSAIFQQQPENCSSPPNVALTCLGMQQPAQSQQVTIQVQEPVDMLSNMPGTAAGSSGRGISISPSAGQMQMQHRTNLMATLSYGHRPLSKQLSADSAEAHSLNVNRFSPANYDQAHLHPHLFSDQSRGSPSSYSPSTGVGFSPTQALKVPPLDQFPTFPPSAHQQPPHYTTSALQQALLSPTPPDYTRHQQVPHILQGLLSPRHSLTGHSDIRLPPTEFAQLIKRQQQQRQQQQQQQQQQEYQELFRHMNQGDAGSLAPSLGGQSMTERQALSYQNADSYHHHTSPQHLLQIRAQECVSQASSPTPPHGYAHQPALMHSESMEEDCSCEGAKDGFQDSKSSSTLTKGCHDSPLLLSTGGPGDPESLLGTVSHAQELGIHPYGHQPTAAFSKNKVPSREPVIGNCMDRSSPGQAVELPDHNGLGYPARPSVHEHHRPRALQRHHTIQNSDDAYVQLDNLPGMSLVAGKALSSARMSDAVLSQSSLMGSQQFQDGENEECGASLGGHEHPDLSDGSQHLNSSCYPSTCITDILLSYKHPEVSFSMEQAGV
T7 sequence (Q07002 whole entry): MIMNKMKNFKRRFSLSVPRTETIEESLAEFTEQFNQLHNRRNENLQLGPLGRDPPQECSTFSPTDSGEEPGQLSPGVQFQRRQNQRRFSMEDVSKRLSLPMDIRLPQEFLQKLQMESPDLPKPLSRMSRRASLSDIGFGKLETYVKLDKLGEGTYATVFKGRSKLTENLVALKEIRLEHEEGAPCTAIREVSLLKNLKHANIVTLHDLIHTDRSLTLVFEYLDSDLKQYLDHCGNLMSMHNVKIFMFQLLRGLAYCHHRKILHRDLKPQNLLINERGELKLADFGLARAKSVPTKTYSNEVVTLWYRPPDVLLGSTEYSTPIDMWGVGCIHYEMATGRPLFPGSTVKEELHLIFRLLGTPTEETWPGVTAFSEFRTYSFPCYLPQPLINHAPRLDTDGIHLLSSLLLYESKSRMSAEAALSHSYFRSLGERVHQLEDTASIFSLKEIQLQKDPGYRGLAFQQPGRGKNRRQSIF
T7 sequence (Q8ND76 whole entry partner): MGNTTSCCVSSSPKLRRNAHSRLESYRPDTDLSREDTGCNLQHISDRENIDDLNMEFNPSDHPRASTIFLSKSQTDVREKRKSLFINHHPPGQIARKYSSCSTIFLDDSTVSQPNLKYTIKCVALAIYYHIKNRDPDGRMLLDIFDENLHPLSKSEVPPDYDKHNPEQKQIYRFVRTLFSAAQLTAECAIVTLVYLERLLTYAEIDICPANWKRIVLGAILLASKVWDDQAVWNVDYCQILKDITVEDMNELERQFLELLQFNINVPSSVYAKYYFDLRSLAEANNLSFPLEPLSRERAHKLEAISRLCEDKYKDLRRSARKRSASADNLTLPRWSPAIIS
T8 sequence (P36894 24-532): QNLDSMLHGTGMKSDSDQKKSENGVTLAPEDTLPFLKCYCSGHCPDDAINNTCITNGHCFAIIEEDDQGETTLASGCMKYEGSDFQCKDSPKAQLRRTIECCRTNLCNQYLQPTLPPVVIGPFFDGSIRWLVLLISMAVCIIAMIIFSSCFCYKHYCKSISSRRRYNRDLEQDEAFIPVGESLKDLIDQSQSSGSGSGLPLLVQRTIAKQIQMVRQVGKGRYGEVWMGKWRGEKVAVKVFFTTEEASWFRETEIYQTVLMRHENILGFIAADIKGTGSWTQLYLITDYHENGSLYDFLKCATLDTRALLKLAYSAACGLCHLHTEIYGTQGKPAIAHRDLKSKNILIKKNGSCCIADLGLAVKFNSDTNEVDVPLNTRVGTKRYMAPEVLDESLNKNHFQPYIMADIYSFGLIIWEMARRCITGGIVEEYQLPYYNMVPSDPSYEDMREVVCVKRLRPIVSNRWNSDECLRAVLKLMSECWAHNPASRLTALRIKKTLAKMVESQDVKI
T14 sequence (Q16539 whole entry): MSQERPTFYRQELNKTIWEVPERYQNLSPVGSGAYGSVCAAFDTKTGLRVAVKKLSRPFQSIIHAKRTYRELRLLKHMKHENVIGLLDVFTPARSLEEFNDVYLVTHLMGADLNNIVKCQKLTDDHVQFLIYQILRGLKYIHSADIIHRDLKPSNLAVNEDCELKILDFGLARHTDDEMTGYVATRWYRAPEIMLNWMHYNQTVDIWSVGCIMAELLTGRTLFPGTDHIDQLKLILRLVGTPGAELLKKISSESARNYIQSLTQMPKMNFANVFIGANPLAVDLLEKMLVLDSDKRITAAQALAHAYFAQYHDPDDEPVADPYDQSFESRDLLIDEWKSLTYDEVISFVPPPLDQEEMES

Compound | residual kinase activity (CDC42BPA; 0.3 µM) | residual kinase activity (PKA; 0.3 µM) | residual kinase activity (SIK3; 0.3 µM) | residual kinase activity (TGFBR1; 0.3 µM) | residual kinase activity (MELK; 0.3 µM) | residual kinase activity (MARK2; 0.3 µM) | residual kinase activity (CDK18/CycY; 0.3 µM) | residual kinase activity (BMPR1A; 0.3 µM) | residual kinase activity (SGK1; 0.3 µM) | residual kinase activity (CDK9/CycK; 0.3 µM) | residual kinase activity (PHKG1; 0.3 µM) | residual kinase activity (ITK; 0.3 µM) | residual kinase activity (MARK3; 0.3 µM) | residual kinase activity (p38α; 0.3 µM) | further results
COc1ccnc2[nH]cc(-c3cc(N)nc(N)c3)c12 [meriolin 16] | 7 % of control | 43 % of control | 88 % of control | 67 % of control | 14 % of control | 88 % of control | 5 % of control | 94 % of control | 76 % of control | 0 % of control | 39 % of control | 88 % of control | 86 % of control | 74 % of control | residual kinase activity (CDC42BPA; 0.03 µM): 53 % of control; residual kinase activity (PKA; 0.03 µM): 75 % of control; residual kinase activity (SIK3; 0.03 µM): 106 % of control; residual kinase activity (TGFBR1; 0.03 µM): 65 % of control; residual kinase activity (MELK; 0.03 µM): 74 % of control; residual kinase activity (MARK2; 0.03 µM): 91 % of control; residual kinase activity (CDK18/CycY; 0.03 µM): 36 % of control; residual kinase activity (BMPR1A; 0.03 µM): 94 % of control; residual kinase activity (SGK1; 0.03 µM): 92 % of control; residual kinase activity (CDK9/CycK; 0.03 µM): 7 % of control; residual kinase activity (PHKG1; 0.03 µM): 85 % of control; residual kinase activity (ITK; 0.03 µM): 105 % of control; residual kinase activity (MARK3; 0.03 µM): 99 % of control; residual kinase activity (p38α; 0.03 µM): 94 % of control
c1ccc(CNc2cc(-c3c[nH]c4ncccc34)ccn2)cc1 [meriolin 36] | 1 % of control | 12 % of control | 72 % of control | 18 % of control | 36 % of control | 98 % of control | 6 % of control | 105 % of control | 30 % of control | 2 % of control | 16 % of control | 77 % of control | 89 % of control | 78 % of control | residual kinase activity (CDC42BPA; 3 µM): 1 % of control; residual kinase activity (PKA; 3 µM): 2 % of control; residual kinase activity (SIK3; 3 µM): 32 % of control; residual kinase activity (TGFBR1; 3 µM): 0 % of control; residual kinase activity (MELK; 3 µM): 9 % of control; residual kinase activity (MARK2; 3 µM): 63 % of control; residual kinase activity (CDK18/CycY; 3 µM): 0 % of control; residual kinase activity (BMPR1A; 3 µM): 61 % of control; residual kinase activity (SGK1; 3 µM): 10 % of control; residual kinase activity (CDK9/CycK; 3 µM): 0 % of control; residual kinase activity (PHKG1; 3 µM): 2 % of control; residual kinase activity (ITK; 3 µM): 16 % of control; residual kinase activity (MARK3; 3 µM): 48 % of control; residual kinase activity (p38α; 3 µM): 80 % of control

From paper PMC11167047 (Cell Death Discovery, 2024)
